Assay results: ChEMBL document CHEMBL4017445, “Development and crystallographic evaluation of histone H3 peptide with N-terminal serine substitution as a potent inhibitor of lysine-specific demethylase 1” (Bioorg Med Chem, 2017)

Target: Lysine-specific histone demethylase 1A (Homo sapiens, UniProt O60341)
Experiment: Inhibition of human LSD1 (172 to 833 residues) assessed as reduction in H2O2 production using H3K4me2 (1 to 20 residues) peptide as substrate preincubated for 10 mins followed by substrate addition measured after 30 mins by peroxidase coupled enzyme assay

Ki [µM]	Structure (SMILES)
170	CSCC[C@H](NC(=O)[C@@H](NC(=O)[C@H](CCCNC(=N)N)NC(=O)CO)[C@@H](C)O)C(=O)N[C@@H](CCC(N)=O)C(=O)N[C@H](C(=O)N[C@@H](C)C(=O)N[C@@H](CCCNC(=N)N)C(=O)N[C@@H](CCCCN)C(=O)N[C@@H](CO)C(=O)N[C@H](C(=O)NCC(=O)NCC(=O)N[C@@H](CCCCN)C(=O)N[C@@H](C)C(=O)N1CCC[C@H]1C(=O)N[C@@H](CCCNC(=N)N)C(=O)N[C@@H](CCCCN)C(=O)N[C@@H](CCC(N)=O)C(=O)N[C@@H](CC(C)C)C(N)=O)[C@@H](C)O)[C@@H](C)O
> 500	CSCC[C@H](NC(=O)[C@@H](NC(=O)[C@@H](N)CCCNC(=N)N)[C@@H](C)O)C(=O)N[C@@H](CCC(N)=O)C(=O)N[C@H](C(=O)N[C@@H](C)C(=O)N[C@@H](CCCNC(=N)N)C(=O)N[C@@H](CCCCN)C(=O)N[C@@H](CO)C(=O)N[C@H](C(=O)NCC(=O)NCC(=O)N[C@@H](CCCCN)C(=O)N[C@@H](C)C(=O)N1CCC[C@H]1C(=O)N[C@@H](CCCNC(=N)N)C(=O)N[C@@H](CCCCN)C(=O)N[C@@H](CCC(N)=O)C(=O)N[C@@H](CC(C)C)C(N)=O)[C@@H](C)O)[C@@H](C)O
